# Reference: ChEMBL document CHEMBL3885861, “Open TG-GATES”
# Species: Rattus norvegicus
# Test: Open TG-GATES - Regimen: Single
# Type: toxicity, organism-based, Sprague-Dawley
# Parameters: regimen Single, gender Male, age 6 weeks
# Conditions: in vivo, iv, 2000 mg/kg, route intravenous injection, dose level High; for APTT / Bas / Eos / Fbg / Hb / Ht / Lym / MCH / MCHC / MCV / Mono / PT / Plat / RBC / Ret / WBC: tissue Blood; for KIDNEY_L / KIDNEY_R / KIDNEY_TOTAL: tissue Kidney; for LIVER: tissue Liver; for ALP / ALT / AST / BUN / CRE / Ca / Cl / DBIL / GLC / IP / K / LDH / Na / PL / RALB / TBIL / TC / TG / TP / gamma-GTP: tissue Plasma
compound,measurement,setting,value
CC(=O)OCC1=C(C(=O)O)N2C(=O)[C@@H](NC(=O)Cc3cccs3)[C@H]2SC1 [CEPHALOTHIN],TERMINAL_BW,3 h,214.8 g
same,APTT,3 h,23.6 s
same,Bas,3 h,0%
same,Eos,3 h,0.4%
same,Fbg,3 h,277.6 mg/dL
same,Hb,3 h,13.6 g/dL
same,Ht,3 h,39.4%
same,Lym,3 h,66.4%
same,MCH,3 h,21.1 pg
same,MCHC,3 h,34.5%
same,MCV,3 h,61.3 fL
same,Mono,3 h,3.6%
same,PT,3 h,16.6 s
same,Plat,3 h,131.7 x10_4/uL
same,RBC,3 h,644 x10_4/ul
same,Ret,3 h,6.1%
same,WBC,3 h,63.2 x10_2/uL
same,KIDNEY_L,3 h,0.9 g
same,KIDNEY_R,3 h,1 g
same,KIDNEY_TOTAL,3 h,1.9 g
same,LIVER,3 h,9.6 g
same,ALP,3 h,1568.4 IU/L
same,ALT,3 h,46.4 IU/L
same,AST,3 h,94.6 IU/L
same,BUN,3 h,12.2 mg/dL
same,CRE,3 h,0.2 mg/dL
same,Ca,3 h,10.7 mg/dL
same,Cl,3 h,104.4 meq/L
same,DBIL,3 h,0.002 mg/dL
same,GLC,3 h,173.2 mg/dL
same,IP,3 h,9.3 mg/dL
same,K,3 h,4.2 meq/L
same,LDH,3 h,214.4 IU/L
same,Na,3 h,141.8 meq/L
same,PL,3 h,136 mg/dL
same,RALB,3 h,2.9 g/dL
same,TBIL,3 h,0.016 mg/dL
same,TC,3 h,68.2 mg/dL
same,TG,3 h,79.8 mg/dL
same,TP,3 h,5.4 g/dL
same,gamma-GTP,3 h,1.2 IU/L
same,TERMINAL_BW,6 h,214.6 g
same,APTT,6 h,23 s
same,Bas,6 h,0%
same,Eos,6 h,0.4%
same,Fbg,6 h,279.2 mg/dL
same,Hb,6 h,13.4 g/dL
same,Ht,6 h,39.1%
same,Lym,6 h,67.4%
same,MCH,6 h,21 pg
same,MCHC,6 h,34.3%
same,MCV,6 h,61.1 fL
same,Mono,6 h,3%
same,PT,6 h,16.3 s
same,Plat,6 h,121.3 x10_4/uL
same,RBC,6 h,639.8 x10_4/ul
same,Ret,6 h,5.9%
same,WBC,6 h,81.2 x10_2/uL
same,KIDNEY_L,6 h,1 g
same,KIDNEY_R,6 h,1.1 g
same,KIDNEY_TOTAL,6 h,2.1 g
same,LIVER,6 h,9.2 g
same,ALP,6 h,1347.4 IU/L
same,ALT,6 h,42.6 IU/L
same,AST,6 h,95.8 IU/L
same,BUN,6 h,12 mg/dL
same,CRE,6 h,0.1 mg/dL
same,Ca,6 h,10.6 mg/dL
same,Cl,6 h,105 meq/L
same,DBIL,6 h,0.002 mg/dL
same,GLC,6 h,171.6 mg/dL
same,IP,6 h,9.4 mg/dL
same,K,6 h,4.4 meq/L
same,LDH,6 h,182.6 IU/L
same,Na,6 h,141.2 meq/L
same,PL,6 h,145 mg/dL
same,RALB,6 h,2.9 g/dL
same,TBIL,6 h,0.022 mg/dL
same,TC,6 h,73.6 mg/dL
same,TG,6 h,136.6 mg/dL
same,TP,6 h,5.3 g/dL
same,gamma-GTP,6 h,1.2 IU/L
same,TERMINAL_BW,9 h,210.5 g
same,APTT,9 h,21.8 s
same,Bas,9 h,0%
same,Eos,9 h,1%
same,Fbg,9 h,290.8 mg/dL
same,Hb,9 h,13.4 g/dL
same,Ht,9 h,39.2%
same,Lym,9 h,70.8%
same,MCH,9 h,21 pg
same,MCHC,9 h,34.2%
same,MCV,9 h,61.4 fL
same,Mono,9 h,2.8%
same,PT,9 h,16.3 s
same,Plat,9 h,122.1 x10_4/uL
same,RBC,9 h,638.8 x10_4/ul
same,Ret,9 h,5.8%
same,WBC,9 h,69.5 x10_2/uL
same,KIDNEY_L,9 h,1 g
same,KIDNEY_R,9 h,1 g
same,KIDNEY_TOTAL,9 h,2 g
same,LIVER,9 h,8.6 g
same,ALP,9 h,1382 IU/L
same,ALT,9 h,39.4 IU/L
same,AST,9 h,90 IU/L
same,BUN,9 h,10.4 mg/dL
same,CRE,9 h,0.1 mg/dL
same,Ca,9 h,10.5 mg/dL
same,Cl,9 h,106 meq/L
same,DBIL,9 h,0 mg/dL
same,GLC,9 h,176 mg/dL
same,IP,9 h,9.3 mg/dL
same,K,9 h,4.5 meq/L
same,LDH,9 h,162.6 IU/L
same,Na,9 h,141 meq/L
same,PL,9 h,134.4 mg/dL
same,RALB,9 h,2.9 g/dL
same,TBIL,9 h,0.028 mg/dL
same,TC,9 h,66.4 mg/dL
same,TG,9 h,101.2 mg/dL
same,TP,9 h,5.3 g/dL
same,gamma-GTP,9 h,1.2 IU/L
same,TERMINAL_BW,24 h,223.7 g
same,APTT,24 h,21.3 s
same,Bas,24 h,0%
same,Eos,24 h,0.8%
same,Fbg,24 h,339.2 mg/dL
same,Hb,24 h,13.5 g/dL
same,Ht,24 h,38.6%
same,Lym,24 h,83.6%
same,MCH,24 h,20.4 pg
same,MCHC,24 h,34.8%
same,MCV,24 h,58.4 fL
same,Mono,24 h,2.4%
same,PT,24 h,16.2 s
same,Plat,24 h,117.9 x10_4/uL
same,RBC,24 h,661.4 x10_4/ul
same,Ret,24 h,5.4%
same,WBC,24 h,77.7 x10_2/uL
same,KIDNEY_L,24 h,1 g
same,KIDNEY_R,24 h,1 g
same,KIDNEY_TOTAL,24 h,2 g
same,LIVER,24 h,9 g
same,ALP,24 h,1511.8 IU/L
same,ALT,24 h,44.8 IU/L
same,AST,24 h,78.6 IU/L
same,BUN,24 h,15.6 mg/dL
same,CRE,24 h,0.2 mg/dL
same,Ca,24 h,10.6 mg/dL
same,Cl,24 h,106 meq/L
same,DBIL,24 h,0.004 mg/dL
same,GLC,24 h,183 mg/dL
same,IP,24 h,7.3 mg/dL
same,K,24 h,4.4 meq/L
same,LDH,24 h,162 IU/L
same,Na,24 h,142.2 meq/L
same,PL,24 h,143.8 mg/dL
same,RALB,24 h,3.1 g/dL
same,TBIL,24 h,0.02 mg/dL
same,TC,24 h,74.6 mg/dL
same,TG,24 h,76 mg/dL
same,TP,24 h,5.7 g/dL
same,gamma-GTP,24 h,1.6 IU/L
